The test system of one assay is HCT116 MTAP null cells. Description: HCT116 MTAP null cell line proliferation (CellTiter-Glo cell viability, 6 days). It counts as cell-based. To be noted: HCT116-MTAP null, 144 h, HCT116 MTAP null cells, 6 days of treatment, CellTiter-Glo cell viability; read-out: HCT-116 MTAP null IC50. The method, then:
(§1) To assess selective anti-proliferative activity of compounds of the invention in cells that have loss expression of MTAP, an HCT-116 isogenic cell line pair was utilized where one cell line was engineered to genetically knockout both MTAP alleles. Cell viability was then assessed in both the parent HCT-116 cell line and the MTAP null cell line after 6 days of treatment with compounds of the present invention. Selective anti-proliferative activity in the MTAP null cell line indicates MTA-cooperative inhibition of PRMT5 and ability to inhibit growth of cancer cells that have loss of MTAP.
(§2) HCT116 MTAP null and WT cells were seeded in 96-well tissue culture plates in RPMI 1640 media+10% fetal bovine serum. Plates were incubated overnight at 37° C. and 5% CO2. Cells were then treated with an 8- or 9-point serial dilution of compound, using a top concentration of 1, or 10 μM, 1:3 serial dilution steps and, a DMSO-only control. Cells were incubated in the presence of drug for 6 days. Effects on cell viability were measured with the CellTiter-Glo® Luminescent Cell Viability Assay (Promega) per manufacturer's recommendation. Assay plates were read on an EnVision™ Multilabel Reader using the Ultra-Sensitive luminescence module. IC50 values were calculated with GraphPad Prism v 5.01 using symmetrical sigmoidal dose-response least squares fit with Hill slope fixed to −1 and top constrain to 100% or GeneData Screener using a 4-parameter logistic model to fit dose response curves.
(§3) Alternatively, compounds could be assayed with a 384 well plate format:
(§4) Compounds were pre-spotted into 384 well plates with a 22-point serial dilution of compound, using a top concentration of 10 or 50 μM, 1:2 serial dilution steps and, a DMSO-only control. HCT116 MTAP null and WT cells were then seeded as above and after 6 days effects on cell viability were measured with the CellTiter-Glo® Luminescent Cell Viability Assay (Promega). Assay plates were read as above and IC50 values were calculated with GeneData Screener using a 4-parameter logistic model to fit dose response curves. The reported IC50 represents the value where the curve transits 50% of control.
On the technique in general: ATP-based viability assays read luminescence as a measure of living cells.

For another assay, the system named is HCT116 WT cells. As to the kind of experiment: HCT116 WT cell line proliferation (CellTiter-Glo cell viability, 6 days). It counts as cell-based. The settings on record: Homo sapiens, HCT-116, 144 h, HCT116 WT (parent) cells, 6 days of treatment, CellTiter-Glo cell viability; read-out: HCT-116 WT IC50. As to the method: as §1, §2, §3, §4

A word on the IC50: it is the concentration needed to halve the response being measured. For the compound `C[C@H]1COC[C@@H](c2ccc(C(F)(F)F)cn2)N1C(=O)c1cc2c3c(c(N)nc2cc1Cl)COC3` (racemic) [Example 301, (4-amino-7-chloro-1,3-dihydrofuro[3,4-c]quinolin-8-yl)((3R,5S)-3-methyl-5-(5-(trifluoromethyl)-2-pyridinyl)-4-morpholinyl)methanone and (4-amino-7-chloro-1,3-dihydrofuro[3,4-c]quinolin-8-yl)((3S,5R)-3-methyl-5-(5-(trifluoromethyl)-2-pyridinyl)-4-morpholinyl)methanone], the IC50 in the assay on HCT116 MTAP null cells worked out at 6 nM; in the assay on HCT116 WT cells, 60 nM.

As for `C[C@H]1COC[C@@H](c2ccc(C(F)(F)F)nc2)N1C(=O)c1cc2c3c(c(N)nc2cc1Cl)COC3` (racemic) [Example 302, (4-amino-7-chloro-1,3-dihydrofuro[3,4-c]quinolin-8-yl)((3R,5S)-3-methyl-5-(6-(trifluoromethyl)-3-pyridinyl)-4-morpholinyl)methanone and (4-amino-7-chloro-1,3-dihydrofuro[3,4-c]quinolin-8-yl)((3S,5R)-3-methyl-5-(6-(trifluoromethyl)-3-pyridinyl)-4-morpholinyl)methanone], the IC50 was 11 nM with HCT116 MTAP null cells and 167 nM in the assay with HCT116 WT cells.

As to `C[C@H]1COC[C@@H](c2ccc(C(F)(F)F)nc2)N1C(=O)c1ccc2nc(N)c3c(c2c1)COC3` (racemic) [Example 303, (4-amino-1,3-dihydrofuro[3,4-c]quinolin-8-yl)((3R,5S)-3-methyl-5-(6-(trifluoromethyl)-3-pyridinyl)-4-morpholinyl)methanone and (4-amino-1,3-dihydrofuro[3,4-c]quinolin-8-yl)((3S,5R)-3-methyl-5-(6-(trifluoromethyl)-3-pyridinyl)-4-morpholinyl)methanone], the values for the concentration for half-maximal inhibition (IC50) in the assay with HCT116 MTAP null cells and in the assay with HCT116 WT cells were 134 nM and 2860 nM, respectively.

For the compound `C[C@H]1OCc2c1c(N)nc1ccc(C(=O)N3[C@@H](C)COC[C@H]3c3ccc(C(F)(F)F)nc3)cc21` (racemic) [Example 305, ((3R)-4-amino-3-methyl-1,3-dihydrofuro[3,4-c]quinolin-8-yl)((3R,5S)-3-methyl-5-(6-(trifluoromethyl)-3-pyridinyl)-4-morpholinyl)methanone and ((3R)-4-amino-3-methyl-1,3-dihydrofuro[3,4-c]quinolin-8-yl)((3S,5R)-3-methyl-5-(6-(trifluoromethyl)-3-pyridinyl)-4-morpholinyl)methanone], the figures for the IC50 in the assay on HCT116 MTAP null cells and in the assay with HCT116 WT cells were 49 nM and 611 nM, respectively.

Take `CC(C)Oc1ccc([C@@H]2COC[C@H](C)N2C(=O)c2cc3c4c(c(N)nc3cn2)COC4)cn1` (racemic) [Example 306, (4-amino-1,3-dihydrofuro[3,4-c][1,7]naphthyridin-8-yl)((3R,5S)-3-methyl-5-(6-(2-propanyloxy)-3-pyridinyl)-4-morpholinyl)methanone and (4-amino-1,3-dihydrofuro[3,4-c][1,7]naphthyridin-8-yl)((3S,5R)-3-methyl-5-(6-(2-propanyloxy)-3-pyridinyl)-4-morpholinyl)methanone]: the IC50 with HCT116 MTAP null cells was 96 nM; in the assay on HCT116 WT cells, 2130 nM.

Take `C[C@H]1OCc2c1c(N)nc1cnc(C(=O)N3[C@@H](C)COC[C@H]3c3ccc(C(F)(F)F)cn3)cc21` (racemic) [Example 307, ((3R)-4-amino-3-methyl-1,3-dihydrofuro[3,4-c][1,7]naphthyridin-8-yl)((3R,5S)-3-methyl-5-(5-(trifluoromethyl)-2-pyridinyl)-4-morpholinyl)methanone and ((3R)-4-amino-3-methyl-1,3-dihydrofuro[3,4-c][1,7]naphthyridin-8-yl)((3S,5R)-3-methyl-5-(5-(trifluoromethyl)-2-pyridinyl)-4-morpholinyl)methanone]: the IC50 is 22 nM in the assay with HCT116 MTAP null cells and 492 nM in the assay on HCT116 WT cells.

Turning to `C[C@H]1OCc2c1c(N)nc1cnc(C(=O)N3[C@@H](C)COC[C@H]3c3ccc(C(F)(F)F)nc3)cc21` (racemic) [Example 308, ((3R)-4-amino-3-methyl-1,3-dihydrofuro[3,4-c][1,7]naphthyridin-8-yl)((3R,5S)-3-methyl-5-(6-(trifluoromethyl)-3-pyridinyl)-4-morpholinyl)methanone and ((3R)-4-amino-3-methyl-1,3-dihydrofuro[3,4-c][1,7]naphthyridin-8-yl)((3S,5R)-3-methyl-5-(6-(trifluoromethyl)-3-pyridinyl)-4-morpholinyl)methanone], the figures for the IC50 with HCT116 MTAP null cells and with HCT116 WT cells were 46 nM and 1720 nM, respectively.

As to `C[C@H]1COC[C@@H](c2ccc(C(F)(F)F)nc2)N1C(=O)c1cc2c3c(c(N)nc2cc1F)COC3` (racemic) [Example 309, (4-amino-7-fluoro-1,3-dihydrofuro[3,4-c]quinolin-8-yl)((3R,5S)-3-methyl-5-(6-(trifluoromethyl)-3-pyridinyl)-4-morpholinyl)methanone and (4-amino-7-fluoro-1,3-dihydrofuro[3,4-c]quinolin-8-yl)((3S,5R)-3-methyl-5-(6-(trifluoromethyl)-3-pyridinyl)-4-morpholinyl)methanone], the results for the IC50 with HCT116 MTAP null cells and in the assay with HCT116 WT cells were 40 nM and 688 nM, respectively.

In the case of `C[C@H]1OCc2c1c(N)nc1cnc(C(=O)N3[C@@H](C)COC[C@H]3c3ccc(Cl)nc3)cc21` (racemic) [Example 310, ((3R)-4-amino-3-methyl-1,3-dihydrofuro[3,4-c][1,7]naphthyridin-8-yl)((3R,5S)-3-(6-chloro-3-pyridinyl)-5-methyl-4-morpholinyl)methanone and ((3R)-4-amino-3-methyl-1,3-dihydrofuro[3,4-c][1,7]naphthyridin-8-yl)((3S,5R)-3-(6-chloro-3-pyridinyl)-5-methyl-4-morpholinyl)methanone], the figures for the IC50 with HCT116 MTAP null cells and in the assay with HCT116 WT cells were 66 nM and 3230 nM, respectively.

Turning to `C[C@H]1COC[C@@H](c2ccc(Cl)nc2)N1C(=O)c1cc2c3c(c(N)nc2cn1)COC3` (racemic) [Example 311, (4-amino-1,3-dihydrofuro[3,4-c][1,7]naphthyridin-8-yl)((3R,5S)-3-(6-chloro-3-pyridinyl)-5-methyl-4-morpholinyl)methanone and (4-amino-1,3-dihydrofuro[3,4-c][1,7]naphthyridin-8-yl)((3S,5R)-3-(6-chloro-3-pyridinyl)-5-methyl-4-morpholinyl)methanone], the IC50 is 148 nM in the assay with HCT116 MTAP null cells and 6740 nM in the assay with HCT116 WT cells.

On to `C[C@H]1OCc2c1c(N)nc1ccc(C(=O)N3[C@@H](C)COC[C@H]3c3ccc(Cl)nc3)cc21` (racemic) [Example 312, ((3R)-4-amino-3-methyl-1,3-dihydrofuro[3,4-c]quinolin-8-yl)((3R,5S)-3-(6-chloro-3-pyridinyl)-5-methyl-4-morpholinyl)methanone and ((3R)-4-amino-3-methyl-1,3-dihydrofuro[3,4-c]quinolin-8-yl)((3S,5R)-3-(6-chloro-3-pyridinyl)-5-methyl-4-morpholinyl)methanone], for which the IC50 in the assay on HCT116 MTAP null cells is 71 nM; in the assay on HCT116 WT cells it was 3000 nM.

With `C[C@H]1COC[C@@H](c2ccc(Cl)nc2)N1C(=O)c1cc2c3c(c(N)nc2cc1F)COC3` (racemic) [Example 313, (4-amino-7-fluoro-1,3-dihydrofuro[3,4-c]quinolin-8-yl)((3R,5S)-3-(6-chloro-3-pyridinyl)-5-methyl-4-morpholinyl)methanone and (4-amino-7-fluoro-1,3-dihydrofuro[3,4-c]quinolin-8-yl)((3S,5R)-3-(6-chloro-3-pyridinyl)-5-methyl-4-morpholinyl)methanone], the IC50 in the assay on HCT116 MTAP null cells was 33 nM; with HCT116 WT cells, 850 nM.

As to `C[C@H]1COC[C@@H](c2ccc(OC(F)F)nn2)N1C(=O)c1cc2c3c(c(N)nc2cc1F)COC3` (racemic) [Example 314, (4-amino-7-fluoro-1,3-dihydrofuro[3,4-c]quinolin-8-yl)((3R,5S)-3-(6-(difluoromethoxy)-3-pyridazinyl)-5-methyl-4-morpholinyl)methanone and (4-amino-7-fluoro-1,3-dihydrofuro[3,4-c]quinolin-8-yl)((3S,5R)-3-(6-(difluoromethoxy)-3-pyridazinyl)-5-methyl-4-morpholinyl)methanone], the IC50 with HCT116 MTAP null cells was found to be 15 nM; with HCT116 WT cells, 606 nM.

The values above are taken from US11845760B2, “PRMT5 inhibitors” (AMGEN INC., priority 2020, dated 2023).
